Laboratory results: ChEMBL document CHEMBL4602732, “Optimizing Pyrazolopyrimidine Inhibitors of Calcium Dependent Protein Kinase 1 for Treatment of Acute and Chronic Toxoplasmosis” (J Med Chem, 2020)

Tests used:
[1] = target: Proto-oncogene tyrosine-protein kinase Src (Homo sapiens, UniProt P12931); assay: Inhibition of human Src expressed in Escherichia coli BL21 using Abltide peptide as substrate incubated for 20 to 40 mins by ELISA
[2] = Cytotoxicity against MDCK cells assessed as cell growth at 20 uM measured after 72 hrs by cellTiter 96 AQueous non-radioactive cell proliferation assay relative to control; type: cell-based, Canis lupus familiaris; details: dog, read-out: Activity
[3] = Cytotoxicity against HFF monolayers assessed as cell growth measured after 72 hrs by luciferase reporter gene assay relative to control; type: cell-based; details: human, read-out: Activity
[4] = Protein binding in mouse plasma assessed as unbound fraction at 2 uM measured after 4 hrs by LC-MS/MS analysis; type: ADME, cell-free
[5] = Inhibition of Toxoplasma gondii full-length wild-type C-terminal His-tagged CDPK1 expressed in Escherichia coli BL21(DE3)V2RpAcYc-LIC+LamP using syntide-2 peptide as substrate incubated for 20 to 40 mins by ELISA
[6] = tested on: Toxoplasma gondii; assay: Antiparasitic activity against 2F clone of type 1 Toxoplasma gondii RH tachyzoites expressing beta-galactosidase infected in HFF assessed as reduction in parasite growth measured after 72 hrs by chlorophenol Red-beta-D-galactopyranoside substrate based assay; type: functional, organism-based
[7] = target: Casein kinase I epsilon (CKepsilon) (Homo sapiens, UniProt P49674); assay: Inhibition of recombinant human full-length His-tagged CKepsilon expressed in baculovirus expression system at 1 uM by Lanthascreen assay relative to control
Chain of Casein kinase I epsilon (CKepsilon) (P49674 whole entry): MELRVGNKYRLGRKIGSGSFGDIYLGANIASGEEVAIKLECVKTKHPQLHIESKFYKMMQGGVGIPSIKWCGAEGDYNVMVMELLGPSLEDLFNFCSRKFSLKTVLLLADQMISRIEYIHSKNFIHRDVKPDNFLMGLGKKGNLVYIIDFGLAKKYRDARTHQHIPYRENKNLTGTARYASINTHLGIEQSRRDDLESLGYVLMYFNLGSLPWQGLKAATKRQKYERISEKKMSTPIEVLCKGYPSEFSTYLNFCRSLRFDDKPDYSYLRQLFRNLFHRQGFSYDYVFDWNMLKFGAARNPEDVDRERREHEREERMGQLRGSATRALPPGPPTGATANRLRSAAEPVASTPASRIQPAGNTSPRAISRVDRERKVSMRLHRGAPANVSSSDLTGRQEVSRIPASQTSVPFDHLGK

[8] = target: T1, Aldehyde oxidase (Homo sapiens, UniProt Q06278); assay: Drug metabolism in human liver S9 fraction assessed as aldehyde oxidase-mediated drug metabolism by measuring rate of parent compound decay at 1 uM measured after 90 mins by LC-MS/MS analysis; type: ADME, subcellular
T1 sequence (Q06278 whole entry): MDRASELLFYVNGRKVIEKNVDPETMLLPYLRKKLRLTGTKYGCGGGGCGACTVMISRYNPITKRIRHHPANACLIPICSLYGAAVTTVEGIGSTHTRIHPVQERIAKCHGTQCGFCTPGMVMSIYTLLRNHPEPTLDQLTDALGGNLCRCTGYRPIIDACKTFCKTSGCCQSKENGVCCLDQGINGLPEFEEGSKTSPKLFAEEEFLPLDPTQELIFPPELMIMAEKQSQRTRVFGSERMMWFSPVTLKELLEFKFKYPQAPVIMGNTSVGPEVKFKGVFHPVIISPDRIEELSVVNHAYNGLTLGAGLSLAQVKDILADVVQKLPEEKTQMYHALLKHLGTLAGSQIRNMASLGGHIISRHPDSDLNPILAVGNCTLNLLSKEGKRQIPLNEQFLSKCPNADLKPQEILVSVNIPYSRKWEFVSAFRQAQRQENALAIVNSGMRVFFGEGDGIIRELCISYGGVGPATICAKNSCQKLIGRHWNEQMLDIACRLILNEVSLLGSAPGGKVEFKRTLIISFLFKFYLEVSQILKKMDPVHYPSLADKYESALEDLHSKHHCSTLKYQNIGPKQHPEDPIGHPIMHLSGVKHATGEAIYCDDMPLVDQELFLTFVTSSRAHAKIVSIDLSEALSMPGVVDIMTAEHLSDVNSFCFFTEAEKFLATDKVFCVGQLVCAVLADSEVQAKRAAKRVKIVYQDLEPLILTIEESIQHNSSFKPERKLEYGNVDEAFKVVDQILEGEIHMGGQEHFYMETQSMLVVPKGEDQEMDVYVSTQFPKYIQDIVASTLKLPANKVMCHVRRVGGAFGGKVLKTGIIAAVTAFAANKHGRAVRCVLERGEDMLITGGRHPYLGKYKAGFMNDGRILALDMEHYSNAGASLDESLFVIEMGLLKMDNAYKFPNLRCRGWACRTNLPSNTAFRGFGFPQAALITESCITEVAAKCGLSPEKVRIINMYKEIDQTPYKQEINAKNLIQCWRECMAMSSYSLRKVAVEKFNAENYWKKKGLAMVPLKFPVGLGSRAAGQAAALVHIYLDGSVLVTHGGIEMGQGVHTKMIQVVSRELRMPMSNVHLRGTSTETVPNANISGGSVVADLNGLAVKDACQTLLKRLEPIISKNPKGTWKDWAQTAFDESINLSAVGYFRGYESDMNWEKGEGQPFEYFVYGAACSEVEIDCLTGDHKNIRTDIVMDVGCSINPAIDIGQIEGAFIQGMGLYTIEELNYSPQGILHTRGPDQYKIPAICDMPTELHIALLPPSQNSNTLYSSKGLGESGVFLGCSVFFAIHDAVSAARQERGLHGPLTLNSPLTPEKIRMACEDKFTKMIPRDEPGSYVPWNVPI

[9] = Clearance in human hepatocytes assessed per million cells at 1 uM by LC-MS/MS analysis; type: ADME, cell-based, Hepatocyte
[10] = Cytotoxicity against human CMEC/D3 cells assessed as cell growth at 20 uM measured after 72 hrs by cellTiter 96 AQueous non-radioactive cell proliferation assay relative to control; type: cell-based, hCMEC/D3; details: read-out: Activity
[11] = Cytotoxicity against human SH-SY5Y cells assessed as cell growth at 20 uM measured after 72 hrs by cellTiter 96 AQueous non-radioactive cell proliferation assay relative to control; type: cell-based; details: read-out: Activity
[12] = target: Voltage-gated inwardly rectifying potassium channel KCNH2 (Homo sapiens, UniProt Q12809); assay: Inhibition of human ERG expressed in CHOK1 cells by patch-clamp electrophysiology assay; type: cell-based, CHO-K1
Chain of Voltage-gated inwardly rectifying potassium channel KCNH2 (Q12809 whole entry): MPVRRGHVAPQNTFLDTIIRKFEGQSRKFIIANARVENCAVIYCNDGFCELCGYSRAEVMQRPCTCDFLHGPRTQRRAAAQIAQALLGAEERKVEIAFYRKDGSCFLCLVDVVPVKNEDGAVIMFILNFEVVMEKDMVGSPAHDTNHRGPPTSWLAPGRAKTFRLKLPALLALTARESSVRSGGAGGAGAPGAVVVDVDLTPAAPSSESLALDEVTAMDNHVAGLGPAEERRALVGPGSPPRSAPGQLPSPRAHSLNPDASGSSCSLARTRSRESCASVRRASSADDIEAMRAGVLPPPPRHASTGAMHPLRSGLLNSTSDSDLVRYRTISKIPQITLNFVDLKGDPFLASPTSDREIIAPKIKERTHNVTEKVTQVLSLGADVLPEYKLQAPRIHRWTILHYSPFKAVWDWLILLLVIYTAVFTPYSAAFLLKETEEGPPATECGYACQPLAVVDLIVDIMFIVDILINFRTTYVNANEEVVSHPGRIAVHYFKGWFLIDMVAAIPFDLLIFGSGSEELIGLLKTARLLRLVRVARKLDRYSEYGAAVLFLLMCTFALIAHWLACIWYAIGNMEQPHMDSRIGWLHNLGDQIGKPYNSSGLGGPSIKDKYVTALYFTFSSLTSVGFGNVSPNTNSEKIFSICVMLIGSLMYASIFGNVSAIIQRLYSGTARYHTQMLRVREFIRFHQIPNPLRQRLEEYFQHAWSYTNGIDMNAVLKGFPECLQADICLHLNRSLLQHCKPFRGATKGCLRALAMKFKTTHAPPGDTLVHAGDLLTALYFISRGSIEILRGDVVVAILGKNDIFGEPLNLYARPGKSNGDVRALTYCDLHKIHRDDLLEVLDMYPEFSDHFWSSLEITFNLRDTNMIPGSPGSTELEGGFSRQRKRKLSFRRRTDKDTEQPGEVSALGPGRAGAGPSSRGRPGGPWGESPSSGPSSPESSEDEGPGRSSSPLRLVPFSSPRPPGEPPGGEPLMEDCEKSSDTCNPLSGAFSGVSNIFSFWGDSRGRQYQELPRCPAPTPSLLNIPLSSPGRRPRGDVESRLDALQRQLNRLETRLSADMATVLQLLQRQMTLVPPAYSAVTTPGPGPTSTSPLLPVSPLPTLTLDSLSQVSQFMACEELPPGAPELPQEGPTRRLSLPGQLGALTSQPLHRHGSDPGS

[13] = Genotoxicity in Salmonella typhimurium TA98 at 0.004 to 5 mg/ml measured after 90 mins in presence of rat S9 fraction by mini-Ames test; type: toxicity, subcellular; details: salmonella enterica subsp. enterica serovar typhimurium
[14] = Genotoxicity in Salmonella typhimurium TA100 at 0.004 to 5 mg/ml measured after 90 mins in presence of rat S9 fraction by mini-Ames test; type: toxicity, subcellular; details: salmonella enterica subsp. enterica serovar typhimurium
[15] = Genotoxicity in Salmonella typhimurium TA100 at 0.004 to 5 mg/ml measured after 90 mins in absence of rat S9 fraction by mini-Ames test; type: toxicity; details: salmonella enterica subsp. enterica serovar typhimurium
[16] = tested on: CHO-K1; assay: Genotoxicity in CHOK1 cells measured after 24 hrs in absence of Sprague-Dawley rat liver S9 fraction by Hoechst/calcein-AM staining based micronucleus test; type: toxicity, cell-based, Cricetulus griseus; details: chinese hamster, cho-k1, 24 h
[17] = tested on: CHO-K1; assay: Genotoxicity in CHOK1 cells measured after 3 hrs in presence of Sprague-Dawley rat liver S9 fraction by Hoechst/calcein-AM staining based micronucleus test; type: toxicity, cell-based, Cricetulus griseus; details: chinese hamster, s9, 3 h
[18] = Half life in CD1 mouse at 3 mg/kg, iv or 10 mg/kg, po administered via gavage by LC-MS/MS analysis; type: ADME, organism-based; details: in vivo
[19] = Cmax in CD1 mouse at 3 mg/kg, iv or 10 mg/kg, po administered via gavage by LC-MS/MS analysis; type: ADME, organism-based; details: in vivo
[20] = AUC in CD1 mouse at 3 mg/kg, iv or 10 mg/kg, po administered via gavage by LC-MS/MS analysis; type: ADME, organism-based; details: in vivo
[21] = Oral bioavailability in CD1 mouse at 10 mg/kg administered via gavage by LC-MS/MS analysis; type: ADME, organism-based; details: in vivo
[22] = Toxicity in CD1 mouse assessed as adverse effect at 600 mg/kg measured for 7 days; type: organism-based; details: in vivo, 168 h

Chain of Proto-oncogene tyrosine-protein kinase Src (P12931 2-536 limits assumed): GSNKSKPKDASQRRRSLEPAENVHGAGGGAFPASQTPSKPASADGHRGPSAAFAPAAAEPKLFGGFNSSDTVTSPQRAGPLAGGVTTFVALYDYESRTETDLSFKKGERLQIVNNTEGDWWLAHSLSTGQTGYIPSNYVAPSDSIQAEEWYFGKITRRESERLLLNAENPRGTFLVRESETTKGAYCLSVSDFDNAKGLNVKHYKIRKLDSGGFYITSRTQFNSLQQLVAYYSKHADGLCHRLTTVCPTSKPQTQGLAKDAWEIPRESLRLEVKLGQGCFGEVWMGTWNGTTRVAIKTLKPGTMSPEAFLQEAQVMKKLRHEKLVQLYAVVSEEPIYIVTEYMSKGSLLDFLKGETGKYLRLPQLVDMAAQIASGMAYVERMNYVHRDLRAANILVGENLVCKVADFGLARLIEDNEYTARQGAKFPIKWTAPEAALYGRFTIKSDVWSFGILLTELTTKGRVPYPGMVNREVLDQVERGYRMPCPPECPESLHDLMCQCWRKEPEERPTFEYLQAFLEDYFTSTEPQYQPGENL

SMILES	IC50 [1]	viability at 72 h, 20 µM [2]	viability at 72 h [3]	Fu [4]	IC50 [5]	EC50 [6]	inhibition at 1 µM [7]	Drug metabolism [8]	CLH [9]	viability at 72 h, 20 µM [10]	viability at 72 h, 20 µM [11]	IC50 [12]	Activity [13]	Activity [14]	Activity [15]	Activity [16]	Activity [17]	t1/2 [18]	Cmax [19]	AUC [20]	also measured
N#Cc1ccnc(Oc2nn([C@H]3C[C@H](F)C3)c3ncnc(N)c23)c1	> 20000 nM	79.4%	112%	29.3%	14.9 to 15 nM	201 nM	> 50%	< 3.2 µL/min/mg	10 µL/min/1e6 cells	135%	103%	> 30000 nM	Non-Toxic	Non-Toxic	Non-Toxic	> 100 µM	> 100 µM	1.43 h	1503 ng/mL	3140 ng·h/mL	bioavailability [21]: 43.1%; Activity [22]: Non-Toxic
Nc1ncnc2c1c(Oc1cc(C(F)(F)F)ccn1)nn2C1CC1	> 20000 nM	97.8%	106%	15.6%	16 to 16.5 nM	172 nM	> 50%	< 3.2 µL/min/mg	< 6.4 µL/min/1e6 cells	132%	103%	> 30000 nM	Non-Toxic	Non-Toxic	Non-Toxic	> 1000 µM	> 1000 µM	4.2 h	2067 ng/mL	2677 ng·h/mL	bioavailability [21]: 83%; Activity [22]: Non-Toxic
